In patent publication US12679839B2, “Cyclin-dependent kinase 7 (CDK7) non-covalent inhibitors” (JANSSEN PHARMACEUTICA NV, priority 2020, dated 2026):

How the values were obtained:
[1] = target: T1, CDK7/Cyclin H/MAT-1 complex (Homo sapiens, UniProt P50613); test: Absorbance kinetic assay (20 nM CDK7/Cyclin H/MAT-1 complex); type: biochemical; conditions: for IC50: read-out: CDK7 (20 nM) pIC50 (converted)
T1 construct: Human CDK7 (amino acids 1-346); His6 (N); TEV protease cleavage site (N); made in house; host or cells: baculovirus-SF9 insect cells
Procedure, shortened: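 Trimeric complex (His6-TEV CDK7 1-346, MAT1 1-309, cyclin H 1-323) from Sf9 cells, at 20 nM, phosphorylating RNA Pol II-derived CDK7/9-tide; ADP coupled via PK/LDH to NADH depletion read at 340 nm every 2 min for 8 h. Steady-state slopes gave % inhibition; IC50 from 11-point Hill fit.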

[2] = target: T1, CDK7/Cyclin H/MAT-1 complex; test: Flint assay, end-point fluorescence (5 nM CDK7/Cyclin H/MAT-1 complex); type: biochemical; conditions: for IC50: read-out: CDK7 (5 nM) pIC50 (converted)
Procedure: Human CDK7 (amino acids 1-346) containing an N-terminal His6-tag followed by a tobacco etch virus (TEV) protease cleavage site, human MAT1 (amino acids 1-309) and human cyclin H (amino acids 1-323) were co-expressed in the baculovirus-SF9 insect cell expression system to generate a trimeric complex. Cell pellets were collected 72 h post-infection and were resuspended by Dounce homogenization in 20 mM Hepes-NaOH (pH 8.0), 300 mM NaCl, 10% glycerol, 2 mM dithiothreitol DTT), and 20 mM Imidazole supplemented with cOmplete™ Protease Inhibitor Cocktail (Roche) and 25 U/mL Benzonase® Nuclease HC according to the manufacturer's instructions. Cells were lysed by passing through a Microfluidics M110Y Microfluidizer 3 times at 600 kPa followed by centrifugation at 38,000×g at 4° C. for 1 hour. The supernatant was loaded onto a pre-equilibrated HisTrap HP column and eluted in 20 mM Hepes-NaOH (pH 8.0), 50 mM NaCl, 10% glycerol, 2 mM DTT, and 400 mM Imidazole. The eluate was further purified by gel filtration on a Superdex S200 16/60 column and eluted with 20 mM Hepes-NaOH (pH 7.5), 50 mM NaCl, 10% Glycerol, 2 mM DTT. Fractions containing a trimeric complex of CDK7, cyclin H, and MAT1 in a 1:1:1 ratio were pooled and concentrated to 3 mg/mL in a 10 kDa MWCO concentrator, and diluted to a final concentration of 1.6 mg/mL in 11.1 mM Hepes-NaOH (pH 8.0), 27.8 mM NaCl, 1.1 mM DTT and 50% glycerol.
Compounds with potencies approaching the limit of detection of the assay (IC50≤10 nM) were further assessed in a more sensitive fluorescence end-point assay.
[formula] where νo is the rate in the absence of inhibitor, νmin is the rate at highest inhibitor concentration, and h is the Hill coefficient. Flint Assay (5 nM CDK7/Cyclin H/MAT-1 Complex)
The continuous absorbance assay was converted to an end-point fluorescence assay following the NADH fluorescence signal decrease at the excitation and emission wavelengths of 340 nm and 440 nm, respectively.
Under the same concentrations of substrates and coupling reagents used in the absorbance assay, the fluorescence assay was performed at a reduced concentration of the CDK7/Cyclin H/MAT-1 complex of 5 nM (final concentration) with a reaction time of 24 hours. The percent of inhibition was calculated by the following equation. Percent of inhibition=(Sample−NC)/(PC−NC)*100 where NC is the mean if negative control (reaction without inhibitor), and PC is the mean of positive control (reaction with complete inhibition).
Dosing curves were fitted using the following equation to obtain IC50: Y=Bottom+(Top−Bottom)/(1+10^((log IC50−X)*Hill slope)) where X=log10 of the compound concentration; top and bottom can be defined by PC and NC respectively. Imaging-Based Cellular RNA PolII Ser5 Phosphorylation Assay

T1 sequence (P50613 whole entry, the tested form may be a part): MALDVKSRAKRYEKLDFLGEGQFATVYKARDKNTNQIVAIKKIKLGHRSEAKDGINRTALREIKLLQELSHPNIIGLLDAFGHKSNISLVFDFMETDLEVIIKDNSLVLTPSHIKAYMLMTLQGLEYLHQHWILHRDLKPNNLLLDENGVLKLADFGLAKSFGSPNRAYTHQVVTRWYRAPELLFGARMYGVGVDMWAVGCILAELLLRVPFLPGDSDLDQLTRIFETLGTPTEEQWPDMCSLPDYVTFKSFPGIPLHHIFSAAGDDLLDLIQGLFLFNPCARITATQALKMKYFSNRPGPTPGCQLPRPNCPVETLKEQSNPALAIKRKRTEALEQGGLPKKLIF
T1 sequence (P51946 whole entry partner, the tested form may be a part): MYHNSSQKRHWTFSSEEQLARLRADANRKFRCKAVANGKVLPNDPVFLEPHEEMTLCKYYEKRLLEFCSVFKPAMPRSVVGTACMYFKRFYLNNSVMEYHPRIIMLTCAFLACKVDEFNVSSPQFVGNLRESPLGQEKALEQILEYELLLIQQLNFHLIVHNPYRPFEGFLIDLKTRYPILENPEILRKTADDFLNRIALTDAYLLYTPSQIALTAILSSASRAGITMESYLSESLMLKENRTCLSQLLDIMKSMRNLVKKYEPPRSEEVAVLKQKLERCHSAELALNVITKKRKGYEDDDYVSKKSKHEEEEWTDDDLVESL
T1 sequence (P51948 whole entry partner, the tested form may be a part): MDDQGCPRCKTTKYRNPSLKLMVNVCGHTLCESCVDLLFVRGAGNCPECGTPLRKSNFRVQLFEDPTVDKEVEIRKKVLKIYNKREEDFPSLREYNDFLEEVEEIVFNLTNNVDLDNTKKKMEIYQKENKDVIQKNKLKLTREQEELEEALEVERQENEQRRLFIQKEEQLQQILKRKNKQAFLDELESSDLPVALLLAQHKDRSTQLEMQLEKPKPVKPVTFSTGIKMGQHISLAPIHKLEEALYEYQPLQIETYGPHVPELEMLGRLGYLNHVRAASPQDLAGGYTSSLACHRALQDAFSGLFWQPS

## Cc1ncc(CNc2ncc3c(n2)CN(C(=O)[C@H]2CCN(C)C[C@@H]2c2ccccc2)[C@H](C)C3)[nH]1 [Compound 52]
[1]
  CDK7 (20 nM) pIC50: 7.97
[2]
  CDK7 (5 nM) pIC50: 7.9

## C[C@@H]1Cc2cnc(NC[C@H]3CCOC3)nc2CN1C(=O)[C@H]1CCN(C)C[C@@H]1c1ccccc1 [Compound 53]
[1]
  CDK7 (20 nM) pIC50: 7.39
[2]
  CDK7 (5 nM) pIC50: 7.99

## C[C@@H]1Cc2cnc(NCc3cc(C(F)F)n(C)n3)nc2CN1C(=O)[C@H]1CCN(C)C[C@@H]1c1ccccc1 [Compound 56]
[1]
  CDK7 (20 nM) pIC50: 6.85
[2]
  CDK7 (5 nM) pIC50: 7.44

## C[C@@H]1Cc2cnc(NCc3cnn(C)c3)nc2CN1C(=O)[C@H]1CCN(C)C[C@@H]1c1ccccc1 [Compound 57]
[1]
  CDK7 (20 nM) pIC50: 6.66
[2]
  CDK7 (5 nM) pIC50: 7.53

## CCn1ccc(CNc2ncc3c(n2)CN(C(=O)[C@H]2CCN(C)C[C@@H]2c2ccccc2)[C@H](C)C3)n1 [Compound 58]
[1]
  CDK7 (20 nM) pIC50: >8.01
[2]
  CDK7 (5 nM) pIC50: 8.63

## C[C@@H]1Cc2cnc(N[C@H]3CCC[C@H](O)C3)nc2CN1C(=O)[C@H]1CCN(C)C[C@@H]1c1ccccc1 [Compound 59]
[1]
  CDK7 (20 nM) pIC50: >8.01
[2]
  CDK7 (5 nM) pIC50: 8.28

## C[C@@H]1Cc2cnc(NCc3ccn(C)c3)nc2CN1C(=O)[C@H]1CCN(C)C[C@@H]1c1ccccc1 [Compound 60]
[1]
  IC50: < 9.77 nM
[2]
  IC50: 3.55 nM

## Cc1cn(C)nc1CNc1ncc2c(n1)CN(C(=O)[C@H]1CCN(C)C[C@@H]1c1ccccc1)[C@H](C)C2 [Compound 61]
[1]
  CDK7 (20 nM) pIC50: >8.01
[2]
  CDK7 (5 nM) pIC50: 7.97

## C[C@@H]1Cc2cnc(NC[C@@H]3CCOC3)nc2CN1C(=O)[C@H]1CCN(C)C[C@@H]1c1ccccc1 [Compound 62]
[1]
  CDK7 (20 nM) pIC50: >8.01
[2]
  CDK7 (5 nM) pIC50: 8.33

## Cc1cc(CNc2ncc3c(n2)CN(C(=O)[C@H]2CCN(C)C[C@@H]2c2ccccc2)[C@H](C)C3)nn1C [Compound 65]
[1]
  CDK7 (20 nM) pIC50: 7.58
[2]
  CDK7 (5 nM) pIC50: 7.33

## CC(C)n1ccc(CNc2ncc3c(n2)CN(C(=O)[C@H]2CCN(C)C[C@@H]2c2ccccc2)[C@H](C)C3)n1 [Compound 66]
[1]
  CDK7 (20 nM) pIC50: >8.01
[2]
  CDK7 (5 nM) pIC50: 8.56

## C[C@@H]1Cc2cnc(NC[C@@H]3CCCO3)nc2CN1C(=O)[C@H]1CCN(C)C[C@@H]1c1ccccc1 [Compound 67]
[1]
  IC50: < 9.77 nM
[2]
  IC50: 16.6 nM

## C[C@@H]1Cc2cnc(NC3CCC(OC(F)F)CC3)nc2CN1C(=O)[C@H]1CCN(C)C[C@@H]1c1ccccc1 (stereo partly drawn) [Compound 69]
[1]
  CDK7 (20 nM) pIC50: >8.01
[2]
  CDK7 (5 nM) pIC50: 8.57

## [2H]C([2H])(Nc1ncc2c(n1)CN(C(=O)[C@H]1CCN(C)C[C@@H]1c1ccccc1)[C@H](C)C2)c1ccccc1 [Compound 70]
[1]
  IC50: < 9.77 nM
[2]
  IC50: 1.78 nM

## C[C@@H]1Cc2cnc(N[C@@H](CO)c3ccccc3)nc2CN1C(=O)[C@H]1CCN(C)C[C@@H]1c1ccccc1 [Compound 71]
[1]
  CDK7 (20 nM) pIC50: >8.01
[2]
  CDK7 (5 nM) pIC50: 8.54

## C[C@@H]1Cc2cnc(N[C@H](CO)c3ccccc3)nc2CN1C(=O)[C@H]1CCN(C)C[C@@H]1c1ccccc1 [Compound 72]
[1]
  CDK7 (20 nM) pIC50: 8.01
[2]
  CDK7 (5 nM) pIC50: 8.22

## C[C@@H]1Cc2cnc(Nc3cnn(CC(C)(C)O)c3)nc2CN1C(=O)[C@H]1CCN(C)C[C@@H]1c1ccccc1 [Compound 74]
[1]
  CDK7 (20 nM) pIC50: 7.72
[2]
  CDK7 (5 nM) pIC50: 8.0

## C[C@@H]1Cc2cnc(Nc3ccnc(C(F)F)c3)nc2CN1C(=O)[C@H]1CCN(C)C[C@@H]1c1ccccc1 [Compound 75]
[1]
  CDK7 (20 nM) pIC50: 7.46
[2]
  CDK7 (5 nM) pIC50: 8.04

## C[C@@H]1Cc2cnc(Nc3cnn4c3CCCC4)nc2CN1C(=O)[C@H]1CCN(C)C[C@@H]1c1ccccc1 [Compound 77]
[1]
  CDK7 (20 nM) pIC50: 7.53
[2]
  CDK7 (5 nM) pIC50: 7.88

## Cc1cc(Nc2ncc3c(n2)CN(C(=O)[C@H]2CCN(C)C[C@@H]2c2ccccc2)[C@H](C)C3)ccn1 [Compound 78]
[1]
  CDK7 (20 nM) pIC50: 7.93
[2]
  CDK7 (5 nM) pIC50: 8.37

## C[C@@H]1Cc2cnc(Nc3ccnn3C)nc2CN1C(=O)[C@H]1CCN(C)C[C@@H]1c1ccccc1 [Compound 79]
[1]
  CDK7 (20 nM) pIC50: 7.37
[2]
  CDK7 (5 nM) pIC50: 7.78

## C[C@@H]1Cc2cnc(Nc3cnn(C)c3)nc2CN1C(=O)[C@H]1CCN(C)C[C@@H]1c1ccccc1 [Compound 82]
[1]
  CDK7 (20 nM) pIC50: >8.01
[2]
  CDK7 (5 nM) pIC50: 8.67

## CC(C)n1cc(Nc2ncc3c(n2)CN(C(=O)[C@H]2CCN(C)C[C@@H]2c2ccccc2)[C@H](C)C3)cn1 [Compound 89]
[1]
  CDK7 (20 nM) pIC50: 6.1
[2]
  CDK7 (5 nM) pIC50: <6.7

## C[C@@H]1Cc2cnc(NC(C)(C)c3cnn(C)c3)nc2CN1C(=O)[C@H]1CCN(C)C[C@@H]1c1ccccc1 [Compound 90]
[1]
  CDK7 (20 nM) pIC50: 7.43
[2]
  CDK7 (5 nM) pIC50: 7.57

## Cc1cccc([C@H]2CN(C)CC[C@@H]2C(=O)N2Cc3nc(NC4CCOCC4)ncc3C[C@H]2C)c1 [Compound 93]
[1]
  CDK7 (20 nM) pIC50: >8.01
[2]
  CDK7 (5 nM) pIC50: 8.52

## C[C@@H]1Cc2cnc(NC3CCOCC3)nc2CN1C(=O)[C@H]1CCN(C)C[C@@H]1c1ccc(Cl)c(F)c1 [Compound 122b]
[1]
  CDK7 (20 nM) pIC50: 7.15
[2]
  CDK7 (5 nM) pIC50: 8.5

## Cc1cccc([C@H]2CN(C(C)C)CC[C@@H]2C(=O)N2Cc3nc(NC4CCOCC4)ncc3C[C@H]2C)c1 [Compound 166]
[1]
  CDK7 (20 nM) pIC50: 7.74
[2]
  CDK7 (5 nM) pIC50: 7.85

## CO[C@H]1CC[C@H](Nc2cc3c(cn2)C[C@H](C)N(C(=O)[C@@H]2CCN(C)C[C@H]2c2cccc(C)c2)C3)CC1 [Compound 177a]
[1]
  IC50: 28.8 nM
[2]
  IC50: 12.3 nM

## CO[C@H]1CC[C@H](Nc2cc3c(cn2)C[C@H](C)N(C(=O)[C@H]2CCN(C)C[C@@H]2c2cccc(C)c2)C3)CC1 [Compound 177c]
[1]
  IC50: 389 nM
[2]
  IC50: 22.4 nM

## C[C@@H]1c2nc(NC3CCOCC3)ncc2[C@@H](C)CN1C(=O)[C@H]1CCN(C)C[C@@H]1c1ccccc1 [Compound 180a]
[1]
  CDK7 (20 nM) pIC50: >8.01
[2]
  CDK7 (5 nM) pIC50: 8.68

## CO[C@H]1CC[C@H](Nc2ncc3c(n2)CN(C(=O)[C@H]2CCN(C)C[C@@H]2c2ccccc2)C2(CC2)C3)CC1 [Compound 192]
[1]
  CDK7 (20 nM) pIC50: 6.80
[2]
  CDK7 (5 nM) pIC50: 6.84

## CN1CC[C@H](C(=O)N2Cc3nc(NC4CCOCC4)ncc3C(C)(C)C2)[C@@H](c2ccccc2)C1 [Compound 193]
[1]
  CDK7 (20 nM) pIC50: 6.75
[2]
  CDK7 (5 nM) pIC50: 7.05

## CN1CC[C@H](C(=O)N2Cc3nc(NC4CCOCC4)ncc3[C@@H]3C[C@@H]32)[C@@H](c2ccccc2)C1 [Compound 199]
[1]
  CDK7 (20 nM) pIC50: >8.01
[2]
  CDK7 (5 nM) pIC50: 8.27

## CN1CC[C@H](C(=O)N2Cc3nc(Nc4cnn(C)c4)ncc3[C@@H]3C[C@@H]32)[C@@H](c2ccccc2)C1 [Compound 200]
[1]
  CDK7 (20 nM) pIC50: 7.46
[2]
  CDK7 (5 nM) pIC50: 7.77

## CO[C@H]1CC[C@H](Nc2ncc3c(n2)CN(C(=O)[C@H]2CCN(C)C[C@@H]2c2ccccc2)[C@H]2C[C@@H]32)CC1 [Compound 201]
[1]
  CDK7 (20 nM) pIC50: 7.48
[2]
  CDK7 (5 nM) pIC50: 8.16

## C[C@@H]1Cc2cnc(NC3CCOCC3)nc2CN1C(=O)N1CCN(C)C[C@@H]1c1ccccc1 [Compound 204a]
[1]
  CDK7 (20 nM) pIC50: 7.81
[2]
  CDK7 (5 nM) pIC50: 8.17

## CC(C)N1CCN(C(=O)N2Cc3nc(NC4CCOCC4)ncc3C[C@H]2C)[C@@H](c2ccccc2)C1 [Compound 206]
[1]
  CDK7 (20 nM) pIC50: 7.79
[2]
  CDK7 (5 nM) pIC50: 8.19

## C[C@@H]1Cc2cnc(NC3CCN(S(C)(=O)=O)CC3)nc2CN1C(=O)N1CCN(C)C[C@@H]1c1ccccc1 [Compound 209]
[1]
  CDK7 (20 nM) pIC50: 7.77
[2]
  CDK7 (5 nM) pIC50: 8.48

## C[C@@H]1Cc2cnc(NC3CCN(S(=O)(=O)C4CC4)CC3)nc2CN1C(=O)N1CCN(C)C[C@@H]1c1ccccc1 [Compound 210]
[1]
  CDK7 (20 nM) pIC50: >7.7
[2]
  CDK7 (5 nM) pIC50: 8.48
